Test system: Human immunodeficiency virus 1
Test: Antiviral activity against HIV-1 pseudovirus infected in HEK293T cell transfected with DC-SIGN and luciferase assessed as inhibition of viral entry into cells at 500 uM preincubated with cells for 2 hrs followed by virus addition and measured after 4 hrs by p24 ELISA relative to control
Type: functional
Settings: Human immunodeficiency virus 1, HEK-293T, time 6 hrs

[N-]=[N+]=NCCO[C@H]1O[C@H](CO[C@H]2O[C@H](CO)[C@@H](O)[C@H](O)[C@@H]2O[C@H]2O[C@H](CO)[C@@H](O)[C@H](O)[C@@H]2O)[C@@H](O)[C@H](O[C@H]2O[C@H](CO)[C@@H](O)[C@H](O)[C@@H]2O[C@H]2O[C@H](CO)[C@@H](O)[C@H](O)[C@@H]2O)[C@@H]1O showed an inhibition at 500 µM of 18%.

— ChEMBL document CHEMBL6120933, “Improving Anti-HIV activity and pharmacokinetics of enfuvirtide (T20) by modification with oligomannose” (Eur J Med Chem, 2024)
